Assay results published in US8895579B2, “Heterotricyclic AMPA receptor antagonists for treatment of epilepsy, pain, and other neurological disorders and diseases” (Northwestern University, priority 2010, dated 2014).
“Also recorded” adds a separate entry of the source.

Legend:
[1] = tested on: primary hippocampal neurons; test: In vitro model of status epilepticus (Mg2+ removal, 2 μM glycine), action potential firing in hippocampal neurons; assay type: cell-based; details: 1 μM; SE 2.0±0.3 Hz
Method: (§1) Experiments involving primary hippocampal neurons were carried out as described previously (Vivithanaporn et al., 2007). Dissociated neurons were cultured from E18 prenatal hippocampi and were used for analysis from between 17 and 28 days in vitro. The extracellular solution was the same as used for recombinant receptor analysis, while the internal solution for voltage clamp recordings contained (in mM) 95 CsF, 25 CsCl, 10 Cs-HEPES, 10 EGTA, 2 NaCl, 2 Mg-ATP, 10 QX-314, 5 TEA. and 5 4-AP (pH 7.3) and the internal solution for current clamp recordings contained (in mM) 120 KMeSO4, 5 KCl, 5 NaCl, 1 MgCl2, 11 Na-HEPES, 10 phosphocreatine, 4 Na-ATP, and 0.3 Na-GTP (pH 7.0). Borosilicate patch electrodes were pulled and fire polished to 3-5 MΩ resistance. Both whole cell current clamp and voltage clamp recordings were performed using an Axopatch 200B amplifier (MDS, Sunnyvale, Calif.) and filtered at 20 kHz. Gigaohm seals were established in voltage clamp mode and, after membrane rupture, the recordings were carried out either in voltage clamp (clamped at Vm=−70 mV) with a […] series resistance, which was compensated to ˜60%, or in current clamp mode ([…]) with the bridge balance was corrected and pipette resistance neutralized. In vitro status epilepticus (SE) was induced as described previously (Deshpande et al., 2007; Pal et al., 1999) and action potentials were recorded in current clamp mode. Briefly for in vitro SE, magnesium-containing external solution was exchanged for external solution without magnesium and supplemented with 2 μM glycine. This solution exchange produced a period of rapid depolarization and increased AP firing, followed by a period of channel inactivation and reduced AP firing. After channel inactivation, neurons characteristically would hyperpolarize to hold at a membrane voltage (Vm) which was depolarized relative to control Vm, with an increase in AP firing frequency. […] External solutions were bath-applied at a flow rate of 1.5-2 ml/minute. After recording a basal control period, IKM compounds were applied for five minutes (10 minutes for in vitro SE experiments) and changes in excitatory post-synaptic current (EPSC) charge transfer or action potential (AP) frequency were analyzed during the last two minutes of IKM application.
Several AMPA receptor selective antagonists reduce neuronal hyperactivity in both acute brain slice preparations and in in vitro models of epilepsy (Grasso et al., 1999; Szabados et al., 2001). […] We therefore tested the efficacy of IKM-159 in reducing the hyperactive neuronal phenotype in dissociated hippocampal neurons using an in vitro model of status epilepticus (SE) (Deshpande et al., 2007; Pal et al., 1999). […]

AMPA receptors = details: cited from earlier work; for concentration range inhibiting AMPA receptors: Bleakman et al., 1996
[2] = tested on: AMPA receptor-mediated EPSCs in primary hippocampal neurons; test: AMPA receptor EPSC charge transfer during spontaneous synaptic bursts, whole-cell voltage clamp, cultured hippocampal neurons; assay type: cell-based; details: 30 μM; for charge transfer during bursts of AMPA receptor-mediated synaptic events as a percent of the charge transfer during the control period: voltage clamped at −70 mV
Method: as §1
We first measured the actions of the IKM compounds on the charge transfer during spontaneously occurring, polysynaptic bursts of AMPA receptor excitatory post-synaptic currents (EPSCs) in cultured hippocampal neurons (recorded in the presence of bicuculline methiodide and picrotoxin to inhibit GABAA receptors and D-APV to inhibit NMDA receptors). […] IKM-159 had the greatest inhibitory effect at a fixed concentration of 30 μM, producing a reduction in charge transfer of 65±5% (n=6, p<0.01). […] Despite the polar chemical nature of the compounds, recoveries to basal EPSC charge transfers were minimal.

mice = details: Ikoma et al., 2008; Oikawa et al., 2009 and unpublished observations; cited from earlier work
[3] = biological target: T1, recombinant homomeric GluA4 AMPA receptor (Rattus norvegicus, UniProt P19493); test: Whole-cell patch clamp of recombinant GluA4 receptors in HEK293-T/17 cells; assay type: cell-based; details: for remaining activity at 30 µM: HEK293T/17, read-out: GluA4 peak current as percent of control amplitude; for inhibition at 30 µM: HEK293T/17, read-out: reduction from control GluA4 peak glutamate current amplitude (percent inhibition)
T1 construct: expressed in transfected cells; host or cells: HEK293-T/17 (CRL-11268)
Method: Cell Culture and Transfection. Human embryonic kidney cells expressing T-antigen, clone 17 (HEK293-T/17) (CRL-11268) were cultured at 37° C. with 5% CO2 in DMEM, including 100 μg/mL penicillin, 100 μg/mL streptomycin, and 10% heat-inactivated fetal bovine serum. Cells were split twice per week. For transfection, HEK293-T/17 cells were plated at 3×10^4 cells/cm^2 for pharmacology experiments and 5×10^3 cells/cm^2 for physiology experiments in fresh medium 24 h prior to transfection. Cells were transfected with AMPA or KA receptor plasmid cDNAs using Mirus Trans-IT transfection reagent (Minus Bio Corporation, Madison, Wis.) at a ratio of 1 μg cDNA: 3 μL Trans-1T reagent and maintained in transfection medium overnight followed by a media change the next day. Transfected cells were maintained in this medium until the experiment was conducted (48-72 h total post transfection).
Electrophysiology. For analysis of recombinant receptors, HEK293-T/17 cells were co-transfected with 0.2 μg of iGluR cDNA and 0.05 μg of eGFP. For heterologous GluA1/GluA2 receptors, the GluA1:GluA2 cDNA ratio was 1:6. Two to three days post-transfection, eGFP-expressing cells were lifted from the cover slip and voltage clamped in whole cell mode. The internal solution contained (in mM) 30 CsF, 110 CsCl, 10 HEPES, 4 NaCl, 5 EGTA and 0.5 CaCl2 (pH 7.3), while the extracellular solution contained (in mM) 140 NaCl, 10 glucose, 10 Cs-HEPES, 3 KCl, 2 CaCl2 and 1 MgCl2 (pH 7.3). Borosilicate patch electrodes were pulled and fire polished to 2-3 MO resistance. Lifted cells were maintained in a laminar stream of extracellular solution from a triple-barreled flow pipe, which was rapidly translated using a piezoceramic bimorph for fast application of glutamate or kainate alone or in combination with various antagonists (the 10-90% rise time of glutamate-evoked currents was ˜1 ms). IKM compounds were applied for three minutes with analysis performed on the final one minute of drug application.
Statistical analysis. At least three separate experiments were performed for each assay. For data involving three or more groups, a one-way analysis of variance (ANOVA) was performed with a Tukey-Kramer post hoc test for comparison amongst the groups. For data involving two groups, an unpaired student's t-test was performed; if the standard deviations between the two groups were statistically significant, a Welsh correction was added. If the data involving three or more groups or data involving two groups where multiple treatments were performed on the same sample, a repeated measures ANOVA and paired t-test were used, respectively, for analysis of significance. Dose-inhibition response curves were fitted, with the maximum value constrained to 100 and the minimum value constrained to values greater than or equal to zero, using the following equation in order to calculate the IC50 values: Response=minimum+(maximum−minimum)/(1+(IC50^hill slope/dose^hillslope)) All calculations for statistical analysis were carried out with Graphpad Prism4 software (La Jolla, Calif.). Data are presented as mean±S.E.M. with statistical significance set at p<0.05.

[4] = tested on: primary hippocampal neurons; test: Spontaneous action potential firing, current clamp, cultured hippocampal neurons; assay type: cell-based; details: 20 μM
Method: as §1
Effects of IKM-159 on neuronal excitability. […] To determine if altered neuronal excitability could contribute to this behavioral phenotype, we examined the effect of IKM-86 and IKM-159 on action potential firing in cultured hippocampal neurons. Spontaneous action potentials were recorded in current-clamp mode before, during and after application of 20 μM IKM-86 and IKM-159. […]

[5] = tested on: cultured hippocampal neurons; test: Whole-cell current elicited in cultured hippocampal neurons; assay type: cell-based; details: 30 μM; GABAA and NMDA receptor antagonists present
Method: Experiments involving primary hippocampal neurons were carried out as described previously (Vivithanaporn et al., 2007). Dissociated neurons were cultured from E18 prenatal hippocampi and were used for analysis from between 17 and 28 days in vitro. The extracellular solution was the same as used for recombinant receptor analysis, while the internal solution for voltage clamp recordings contained (in mM) 95 CsF, 25 CsCl, 10 Cs-HEPES, 10 EGTA, 2 NaCl, 2 Mg-ATP, 10 QX-314, 5 TEA. and 5 4-AP (pH 7.3) and the internal solution for current clamp recordings contained (in mM) 120 KMeSO4, 5 KCl, 5 NaCl, 1 MgCl2, 11 Na-HEPES, 10 phosphocreatine, 4 Na-ATP, and 0.3 Na-GTP (pH 7.0). Borosilicate patch electrodes were pulled and fire polished to 3-5 MΩ resistance. Both whole cell current clamp and voltage clamp recordings were performed using an Axopatch 200B amplifier (MDS, Sunnyvale, Calif.) and filtered at 20 kHz. […] In vitro status epilepticus (SE) was induced as described previously (Deshpande et al., 2007; Pal et al., 1999) and action potentials were recorded in current clamp mode. […] After recording a basal control period, IKM compounds were applied for five minutes (10 minutes for in vitro SE experiments) and changes in excitatory post-synaptic current (EPSC) charge transfer or action potential (AP) frequency were analyzed during the last two minutes of IKM application. […]

T1 sequence (P19493 21-902 isoform P19493-2 limits assumed): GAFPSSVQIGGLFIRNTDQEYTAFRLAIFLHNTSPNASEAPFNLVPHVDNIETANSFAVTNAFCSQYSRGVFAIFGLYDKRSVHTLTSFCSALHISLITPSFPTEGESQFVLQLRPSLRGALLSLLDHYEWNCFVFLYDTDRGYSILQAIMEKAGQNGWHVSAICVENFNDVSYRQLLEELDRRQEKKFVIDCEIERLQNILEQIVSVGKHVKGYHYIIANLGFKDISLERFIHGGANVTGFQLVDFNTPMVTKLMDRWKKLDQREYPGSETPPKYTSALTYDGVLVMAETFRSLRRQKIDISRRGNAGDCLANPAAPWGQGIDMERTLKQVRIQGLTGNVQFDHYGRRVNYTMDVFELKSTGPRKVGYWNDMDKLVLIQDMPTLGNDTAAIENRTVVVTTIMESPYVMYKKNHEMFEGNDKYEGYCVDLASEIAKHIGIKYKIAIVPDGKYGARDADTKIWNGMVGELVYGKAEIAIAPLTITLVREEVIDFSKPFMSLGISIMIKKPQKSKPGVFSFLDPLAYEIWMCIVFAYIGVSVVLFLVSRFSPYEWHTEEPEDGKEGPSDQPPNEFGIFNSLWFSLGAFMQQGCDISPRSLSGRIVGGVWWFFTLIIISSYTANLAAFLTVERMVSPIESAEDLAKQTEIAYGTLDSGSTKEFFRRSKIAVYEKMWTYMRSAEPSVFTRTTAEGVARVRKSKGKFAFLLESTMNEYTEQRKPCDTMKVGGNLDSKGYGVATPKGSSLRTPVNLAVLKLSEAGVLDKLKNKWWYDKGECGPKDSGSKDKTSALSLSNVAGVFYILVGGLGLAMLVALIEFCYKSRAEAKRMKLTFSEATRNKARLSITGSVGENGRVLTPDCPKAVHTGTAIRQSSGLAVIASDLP

| Compound | reduction from control charge transfer [2] [%] | charge transfer during bursts of AMPA receptor-mediated synaptic events as a percent of the charge transfer during the control period [2] [%] | behavioral phenotype in mice (mice) | remaining activity at 30 µM [3] [%] | inhibition at 30 µM [3] [%] | further results |
| --- | --- | --- | --- | --- | --- | --- |
| N#Cc1cc2c(cc1[N+](=O)[O-])=NC(=O)C(=O)N=2 [CNQX, 6-cyano-7-nitroquinoxaline-2,3-dione, reference compound] |  |  |  |  |  | AP firing frequency in SE condition with compound [1]: 1.2±0.4 Hz |
| Cc1cc(-c2ccc(/N=N/c3ccc4c(S(=O)(=O)[O-])cc(S(=O)(=O)[O-])c(N)c4c3O)c(C)c2)ccc1/N=N/c1ccc2c(S(=O)(=O)[O-])cc(S(=O)(=O)[O-])c(N)c2c1O.[Na+].[Na+].[Na+].[Na+] [EB] |  |  |  |  |  | IC50 (AMPA receptors; non-competitive antagonist, Keller et al., 1993, Weigand et al., 1998): high nanomolar-low micromolar range |
| CC1=NN=C(c2ccc(N)cc2)c2cc3c(cc2C1)OCO3 [GYKI 52466] |  |  |  |  |  | concentration range inhibiting AMPA receptors (AMPA receptors): low micromolar range |
| CNC(=O)N1N=C(c2ccc(N)cc2)c2cc3c(cc2CC1C)OCO3 (stereo not drawn) [GYKI 53655] |  |  |  |  |  | concentration range inhibiting AMPA receptors (AMPA receptors): low micromolar range |
| O=C(O)C[C@@]12O[C@H]3C=CCN[C@H]3C1C(=O)N[C@H]2C(=O)O (stereo partly drawn) [IKM-27] | 31±9 | 70±9 | hypoactive phenotypes similar to cataleptic states | 80 ± 6 | 20 ± 6 |  |
| O=C(O)C[C@@]12O[C@H]3[C@H](O)[C@H](O)CO[C@H]3C1CN[C@H]2C(=O)O (stereo partly drawn) [IKM-86] | 42±8 | 58±8 | hypoactive phenotypes similar to cataleptic states; also recorded: marked hypoactivity and immobility | 81 ± 2 | 19 ± 2 | persistence of reduction in action potential firing frequency after removal of compound [4]: prolonged; action potential firing frequency in presence of compound ([4]; basal (spontaneous) firing): 0.9±0.3 Hz |
| O=C(O)C[C@@]12O[C@H]3CCCCO[C@H]3C1CN[C@H]2C(=O)O (stereo partly drawn) [IKM-98] | 11±14 | 89±14 | varying degrees of hyperactivity | 88 ± 2 | 12 ± 2 | whole-cell current elicited [5]: 380±160 pA |
| O=C(O)C[C@@]12O[C@H]3[C@H](O)[C@H](O)CCO[C@H]3C1CN[C@H]2C(=O)O (stereo partly drawn) [IKM-107] | 39±12 | 62±12 | varying degrees of hyperactivity | 95 ± 2 | 5 ± 2 | whole-cell current elicited [5]: 47±11 pA |
| O=C(O)C[C@@]12O[C@H]3CCCO[C@H]3C1CN[C@H]2C(=O)O (stereo partly drawn) [IKM-110] | 34±12 | 66±12 | varying degrees of hyperactivity | 86 ± 2 | 14 ± 2 |  |
